According to patent US11891623B2, “Generation of neural stem cells from human trophoblast stem cells” (Accelerated BioSciences Corp., priority 2010, dated 2024):

Assays:
[1] = system: intracellular calcium in Huh-7 cells; assay: Real-time live cell calcium imaging in BBP-treated Huh-7 cells; format: cell-based, human
Experimental: Cells were pre-treated with Fluo-4 (1 μM), a Ca^2+-specific dye, in BSS buffer at 37° C. for 20 min before treatment with BBP (1 μM). Measurements of relative intracellular calcium intensity were performed by real-time cell imaging microscopy and analyzed by Cell-R software system (Olympus).

[2] = system: Huh-7 cells; assay: BBP-induced signaling in Huh-7 cells (RT-PCR, Western blot, immunofluorescence); format: cell-based, human
Experimental: Huh-7 cells (3×10^5) were seeded into a 6-well dish and incubated for 24 h. Cells cultured serum-free medium overnight were treated with BBP (1 μM) for various time intervals. After BBP stimulation, cells were washed twice with PBS. Total RNAs were extracted by TRIzol methods (Invitrogen). RNA (2 μg) was used to synthesize cDNA by Reverse Transcription System (Promega). The c-DNAs were amplified by the specific primers. The primer pairs were designed as follows: AhR, forward 5′-TACTCTGCCGCCCAAACTGG-3′ (SEQ ID NO:49), reverse 5′-GCTCTGCAACCTCCGATTCC-3′ (SEQ ID NO:50); β-actin, forward 5′-CTC GCT GTC CAC CTT CCA-3′ (SEQ ID NO:51), reverse 5′-GCT GTC ACC TTC ACC GTTC-3′ (SEQ ID NO:52). PCR conditions were set at 95° C. for 5 min and 95° C. for 30 sec, 54° C. for 30 sec, 72° C. for 1 min followed by 72° C. for 10 min (36 cycles). The products were separated by 2% agarose gels and visualized by ethidium bromide.
Huh-7 cells (1×10^6) were seeded into 10 cm dish and cultured overnight. The culture medium was changed to serum-free medium for another night. Cells were treated with BBP (1 μM) for various time intervals. […] Cells were then washed twice with ice-cold PBS and lysed by RIPA lysis buffer (Minipore). Protein concentration was measured by BCA protein assay kit (Thermo). Equal amounts of protein (30 μg protein) were resolved by 8% SDS-PAGE, transferred onto PVDF membrane, and blocked with 5% non-fat dry milk for 1 h at room temperature. After blocking, the membrane was incubated with the primary antibodies including AhR (1:1000), Cox-2 (1:1000), Gαq/11 (1:100), Gβ (1:100), β-actin (1:5000), p44/42 MAP kinase (1:1000) or phospho-p44/42 MAP kinase (1:1000) overnight at 4° C. Cells were washed three times with PBST and then incubated with HRP conjugated secondary antibodies for 1 h at room temperature. After washing, the blot was visualized using an enhanced chemiluminescence kit (ECL) (Amersham).
Cells with or without transfection by AhR siRNA were cultured and treated with BBP (1 μM) for 5 and 15 min each. After treatment with primary and secondary antibodies for AhR and Gαq/11, cells were subjected to confocal immunofluorescence microscopy to analyze the dynamic movement in the cell compartments.

[3] = system: AhR; assay: TIRF microscopy of GFP-tagged AhR at the plasma membrane in Huh-7 cells; format: cell-based, human; details: BBP 1 μM
From the text: Immunofluorescence studies are considered important for the dynamic study of signal transduction through their ability to capture snapshots of molecular changes in the cell. Human hepatic Huh-7 cancer cells were pre-transfected with pGFP-C1-AhR by using LT1 transfection reagent (Minis Bio LLC, WI) and total internal reflection fluorescence microscopy to selectively observe the molecular events in the cytoplasmic region immediately beneath the plasma membrane. When BBP was introduced, a rapid but transient recruitment and translocation of the GFP-tagged AhR occurred at the subcellular membrane regions, showing a fast elevation and peaking in 115 seconds followed by a gradual decrease in AhR that occurred over a few minutes (FIG. 14a). This fast, dynamic movement of the memAhR at the subcellular membrane is reminiscent of the notion of soft-wired signal transduction.
Huh-7 cells were pre-transfected with pGFP-C1-AhR (a gift of H. Li) by using LT1 transfection reagent (Minis Bio LLC, Madison, WI) for 24 h. For TIRF microscopy, cells were cultured in serum-free medium on cover-slip overnight followed by stimulation by BBP (1 μM, Sigma). The dynamic activities of GFP-tagged AhR at the cell membrane were observed and analyzed by using Zeiss TIRF microscope with Axio Vision Rel. 4.8 software.

[4] = system: CaMKII; assay: CaMKII inhibitor effect on eIF4B expression (Western blots); format: cell-based, human; details: KN93 1 μM, 2 hr
Experimental: FIGS. 21a-21n illustrate activation of Gαq/11 signaling pathway: (21a) illustrates expressions of Gαq/11 pathway-related components after RA treatment (10 μM) over time by Western blots; (21b) illustrates real-time live cell imaging microscopy (Cell-R system, Olympus, Tokyo) in hTS cells which were cultured in the calcium-free medium and pre-loaded with Fluo4 (1 μM) in BSS buffer 20 min before RA treatment. (a) The RA-induced depletion of intracellular calcium was rescued by adding CaCl2 (2 mM) with a SOCE pattern. […] (c) After depletion of ER calcium, KCl (60 mM) enabled to activate L-type calcium channels.
The transient CaMKII bound and activated eukaryotic initiation factor 4B (eIF4B) (FIG. 21c) to initiate mRNA translation machinery via a cap-independent mechanism.

[5] = system: intracellular calcium in hTS cells; assay: Real-time live cell calcium imaging in RA-treated hTS cells; format: cell-based, human
Experimental: FIGS. 21a-21n illustrate activation of Gαq/11 signaling pathway: (21a) illustrates expressions of Gαq/11 pathway-related components after RA treatment (10 μM) over time by Western blots; (21b) illustrates real-time live cell imaging microscopy (Cell-R system, Olympus, Tokyo) in hTS cells which were cultured in the calcium-free medium and pre-loaded with Fluo4 (1 μM) in BSS buffer 20 min before RA treatment. […] (c) After depletion of ER calcium, KCl (60 mM) enabled to activate L-type calcium channels.

[6] = system: IP3R; details: pretreatment with 2-APB
[7] = system: protein kinase C (PKC) pathway; details: cited from earlier work
[8] = system: hTS cells; assay: RA-induced protein/mRNA expression over time in hTS cells (Western blots, RT-PCR, flow cytometry); format: cell-based, human
Experimental: For RT-PCR, total RNA from 10^5-10^6 cells was extracted by using TRIZOL reagent (Invitrogen) and mRNA expression by using a Ready-To-Go RT-PCR Beads kit (Amersham Biosciences, Buckinghamshire, UK). Briefly, the reaction products were resolved on 1.5% agarose gel and visualized with ethidium bromide. β-actin or β-2 microglobulin was used as a positive control. All experiments were performed in triplicate. For qPCR, gene expression was measured with the iQ5 Real-Time PCR Detection System (Bio-Rad Laboratories) and analyzed with Bio-Rad iQ5 Optical System Software, version 2.0 (Bio-Rad Laboratories). Relative mRNA levels were calculated using the comparative Ct method (Bio-Rad, instruction manual) and presented as a ratio to biological controls. All primer pairs were confirmed to approximately double the amount of product within one cycle and to yield a single product of the predicted size.
Cells were seeded into 10 cm dish with the serum-free medium for overnight and treated with or without RA (10 μM) for various time intervals as indicated. After stimulation, cells were washed twice with ice-cold PBS and lysed by RIPA lysis buffer (Minipore). Protein concentration was determined by BCA protein assay kit (Thermo). Equal amounts of protein (30 μg) were resolved by 8% SDS-PAGE, transferred onto PVDF membrane and blocked with 5% non-fat dry milk for 1 h at room temperature. After blocking, the membrane was incubated with primary antibodies for 4 h at 4° C. Cells were washed three times with PBST and then incubated with HRP conjugated secondary antibodies for 1 h at room temperature. After washing six times with PBST buffer, the membrane was incubated with a chemiluminescent substrate (GE Healthcare) for 1 min. Specific bands were visualized using an enhanced chemiluminescence kit (ECL) (Amersham).
hTS cells obtained from the preimplantation embryos in women with early tubal ectopic pregnancy were described previously. Adherent hTS cells were cultured in conditioned α-MEM containing 10 μg/ml bFGF (JRH, Biosciences, San Jose, CA), 10% FBS, and 1% penicillin-streptomycin at 37° C. in 5% CO2. Cells were treated by RA (10 μM) for various time intervals depending on the experiments.

[9] = system: hTS cells; assay: RA effect on Nanog, Oct4, Sox2, Cdx2 expression in hTS cells (flow cytometry)
[10] = system: hTS cells; assay: RA-induced differentiation of hTS cells; format: cell-based, human
Experimental: In another embodiment, a similar ratio in distribution of mixed RA-induced neural progenitors results over 1 to 5-day RA-induction periods. In another embodiment, the cell differentiation becomes undefined trophoblast giant cells over a 7-day RA treatment.
Cells were cultured in conditioned α-MEM containing 20% FBS, 1% penicillin-streptomycin, and 10 μg/ml bFGF (CytoLab Ltd, Rehovot, Israel) at 37° C. in 5% CO2. The medium was refreshed every 3 days in general. After 5 passages of culture, cell differentiations into a variety of specific cell phenotypes were performed by various strategies as shown in the Table in FIG. 12. For osteogenic differentiation, cytochemical mineral matrix was analyzed using an Alizarin red S assay (Sigma-Aldrich, St. Louis, MO) to detect the calcium mineral content. To identify the calcium deposits, cells were fixed and incubated with 2% silver nitrate solution (w/v) for 10 min in dark followed by thorough wash with de-ionized water and exposed under bright light for 15 min. Cells were treated with […] to detect alkaline phosphatase activity using a commercial kit (Sigma-Aldrich, St. Louis, MO). Chondrogenic differentiation was confirmed using Alcian blue staining (Sigma-Aldrich, St. Louis, MO) at an acidic pH level. […]

## CCCCOC(=O)c1ccccc1C(=O)OCc1ccccc1 [BBP, Benzyl butyl phthalate]
[1]; BBP 1 μM, calcium free medium
  intracellular calcium response: release of intracellular calcium
[2]; BBP 1 μM
  time of COX-2 production: 15 min
[2]; BBP 1 μM, RT-PCR
  time of induction of AhR mRNA expression: 5 min
  time of peak AhR mRNA expression: 15 min
[2]; BBP 1 μM, Western blot
  time of Gαq/11 and Gβ production: 30 min
  time of elevation in AhR production: 15 min
[2]; BBP 1 μM, overnight
  ARNT expression: significantly inhibited
[2]; BBP 1 μM, dephosphorylated at 30 min
  time of ERK1/2 phosphorylation: 15 min
[3]
  time to peak of GFP-tagged AhR recruitment at subcellular membrane: 115 s

## COc1ccc(S(=O)(=O)N(CCO)c2ccccc2CN(C)C/C=C/c2ccc(Cl)cc2)cc1 [KN93]
[4]
  eIF4B expression: inhibited

## NCCOB(c1ccccc1)c1ccccc1 [2-APB, 2-aminoethoxydiphenyl borate]
[5]; 2-APB, dose-dependent
  RA-induced ER calcium release: inhibited
[1]; 2-APB at various concentrations
  BBP-elicited intracellular calcium levels: dose-dependently inhibit
[6]
  Calcineurin, NFAT1, and MEF2A expression: inhibited
[2]
  BBP-induced COX-2 production: blocked

## CC1=C(/C=C/C(C)=C/C=C/C(C)=C/C(=O)O)C(C)(C)CCC1 [RA, all-trans retinoic acid]
[5]; RA, calcium-free medium, Fluo4
  intracellular Ca2+ response: transiently intracellular Ca^2+ release
[7]
  time of translocation of PKC-γ: ≤ 5 min
[7]; transient, at 2 min
  increase in intracellular diacylglycerol (DG): 1.3 fold
[8]; RA 10 μM, RT-PCR
  time of peak c-Src mRNA expression: 15 min
  time of transient elevation of RXRα mRNA and RARβ mRNA: 15 min
[8]; RA 10 μM, Western blot
  time of production of c-Src protein: 1 h
[8]; RA 4 hr and 24 hr incubation, Western blots
  Wnt2B and FRAT1 expression: significantly upregulated
[8]; RA 4 hr vs overnight, flow cytometry
  GSK3β activity state: initially activated in 4 hr but transited into inhibitory later
[8]; RA, RT-PCR
  Fzd6 mRNA expression: overexpression
[8]; RA, Western blot
  calcineurin production: induced production
  time of CaMKII activation: 1 to 2 h
  time of HDAC6 elevation: 2 h
  time of Nanog production: 4 h
[8]; RA, Western blots
  time of RARβ production: 4 h
  time of c-Src expression: 5 min
  time of production of Gαq/11 and Gβ: 30 min
  time of transient Akt3 activation: 1 h
[8]; RA, between 30 min and 24 hr, Western blots
  β-catenin activation: significantly activated
[8]; RA, disappeared after 24 hr
  time of mTOR phosphorylation at serine 2448: 4 h
[8]; RA, fading away at 24 hr
  time of peak eIF4B production: 4 h
[9]; RA one day
  effect on expression of Nanog, Oct4, Sox2, Cdx2: promoted expressions of Nanog, Oct4 and Sox2 but not Cdx2
[9]; RA-induced cells (10 μM, 1 day)
  Nanog expression: 26.9%
[10]; RA 10 μM, 1 to 7 days
  differentiation of hTS cells into neural cell phenotypes: induces hTS cells differentiation into a variety of phenotypical neural cells
[10]; treatment with all-trans retinoic acid
  giant cell formation: resulted in a formation of giant cells
